Measurements as given in ChEMBL document CHEMBL5528086, “Unraveling the Promise of RET Inhibitors in Precision Cancer Therapy by Targeting RET Mutations” (J Med Chem, 2024).
Values belong to the compound of their own block, whether it stands above or below them.

How the values were obtained:
[1] = Inhibition of CCDC6-RET (unknown origin)
[2] = tested on: Proto-oncogene tyrosine-protein kinase receptor Ret (Homo sapiens), P07949 [V804L]; experiment: Inhibition of RET V804L mutant (unknown origin) at 4 nM relative to control
[3] = target: Proto-oncogene tyrosine-protein kinase receptor Ret (Homo sapiens, UniProt P07949, G810R); experiment: Inhibition of RET G810R mutant (unknown origin)
[4] = target: Proto-oncogene tyrosine-protein kinase receptor Ret (Homo sapiens, UniProt P07949, G810A); experiment: Inhibition of RET G810A mutant (unknown origin)
[5] = target: Proto-oncogene tyrosine-protein kinase receptor Ret (Homo sapiens, UniProt P07949, G810C); experiment: Inhibition of RET G810C mutant (unknown origin)
[6] = target: Proto-oncogene tyrosine-protein kinase receptor Ret (Homo sapiens, UniProt P07949, G810V); experiment: Inhibition of RET G810V mutant (unknown origin)
[7] = target: Proto-oncogene tyrosine-protein kinase receptor Ret (Homo sapiens, UniProt P07949, G810S); experiment: Inhibition of RET G810S mutant (unknown origin)
[8] = target: T1, Proto-oncogene tyrosine-protein kinase receptor Ret (Homo sapiens, UniProt P07949); experiment: Inhibition of GST-tagged wild type RET (unknown origin) expressed in Sf9 cells
[9] = target: T2, Proto-oncogene tyrosine-protein kinase receptor Ret (Homo sapiens, UniProt P07949, V804M); experiment: Inhibition of RET V804M mutant (unknown origin) expressed in Sf9 cells by enzymatic assay
[10] = target: Proto-oncogene tyrosine-protein kinase receptor Ret (Homo sapiens, UniProt P07949, G810D); experiment: Inhibition of RET G810D mutant (unknown origin)
[11] = target: T1, Proto-oncogene tyrosine-protein kinase receptor Ret; experiment: Inhibition of full length His-tagged human recombinant RET expressed in baculovirus infected Sf9 cells
[12] = target: Coiled-coil domain-containing protein 6/Tyrosine-protein kinase receptor RET (Homo sapiens, UniProt P07949); experiment: Inhibition of CCDC6-RET (unknown origin); format: protein assay
[13] = tested on: Proto-oncogene tyrosine-protein kinase receptor Ret (Homo sapiens), P07949 [V804L]; experiment: Inhibition of RET V804L mutant (unknown origin) at 4 nM by enzymatic assay relative to control
[14] = Antiproliferative activity against human LC2 cells assessed as reduction in cell growth measured for 48 hrs by MTT assay; format: functional, cell-based; details: LC2, 48 h
[15] = tested on: Proto-oncogene tyrosine-protein kinase receptor Ret (Homo sapiens), P07949 [S904F]; experiment: Inhibition of RET S904F mutant (unknown origin) at 1 nM relative to control
[16] = target: T1, Proto-oncogene tyrosine-protein kinase receptor Ret; experiment: Inhibition of wild type human RET by KINOMEscan assay
[17] = target: Vascular endothelial growth factor receptor 2 (Homo sapiens, UniProt P35968); experiment: Inhibition of wild type VEGFR2 (unknown origin) expressed in baculovirus infected insect cells using biotinylated-GGGGQDGKDYIVLPI peptide as substrate incubated for 1 to 4 hrs by TRF assay; design: species or system Insect cell
[18] = target: T2, Proto-oncogene tyrosine-protein kinase receptor Ret; experiment: Inhibition of RET V804M mutant (unknown origin) by KINOMEscan assay
[19] = target: Proto-oncogene tyrosine-protein kinase receptor Ret (Homo sapiens, UniProt P07949, V804L); experiment: Inhibition of RET V804L mutant (unknown origin)
[20] = target: T1, Proto-oncogene tyrosine-protein kinase receptor Ret; experiment: Inhibition of wild type His-tagged human RET by ADP-Glo assay
[21] = target: ALK tyrosine kinase receptor (Homo sapiens, UniProt Q9UM73); experiment: Inhibition of wild type ALK (unknown origin) by enzymatic assay

T1 sequence (P07949 whole entry): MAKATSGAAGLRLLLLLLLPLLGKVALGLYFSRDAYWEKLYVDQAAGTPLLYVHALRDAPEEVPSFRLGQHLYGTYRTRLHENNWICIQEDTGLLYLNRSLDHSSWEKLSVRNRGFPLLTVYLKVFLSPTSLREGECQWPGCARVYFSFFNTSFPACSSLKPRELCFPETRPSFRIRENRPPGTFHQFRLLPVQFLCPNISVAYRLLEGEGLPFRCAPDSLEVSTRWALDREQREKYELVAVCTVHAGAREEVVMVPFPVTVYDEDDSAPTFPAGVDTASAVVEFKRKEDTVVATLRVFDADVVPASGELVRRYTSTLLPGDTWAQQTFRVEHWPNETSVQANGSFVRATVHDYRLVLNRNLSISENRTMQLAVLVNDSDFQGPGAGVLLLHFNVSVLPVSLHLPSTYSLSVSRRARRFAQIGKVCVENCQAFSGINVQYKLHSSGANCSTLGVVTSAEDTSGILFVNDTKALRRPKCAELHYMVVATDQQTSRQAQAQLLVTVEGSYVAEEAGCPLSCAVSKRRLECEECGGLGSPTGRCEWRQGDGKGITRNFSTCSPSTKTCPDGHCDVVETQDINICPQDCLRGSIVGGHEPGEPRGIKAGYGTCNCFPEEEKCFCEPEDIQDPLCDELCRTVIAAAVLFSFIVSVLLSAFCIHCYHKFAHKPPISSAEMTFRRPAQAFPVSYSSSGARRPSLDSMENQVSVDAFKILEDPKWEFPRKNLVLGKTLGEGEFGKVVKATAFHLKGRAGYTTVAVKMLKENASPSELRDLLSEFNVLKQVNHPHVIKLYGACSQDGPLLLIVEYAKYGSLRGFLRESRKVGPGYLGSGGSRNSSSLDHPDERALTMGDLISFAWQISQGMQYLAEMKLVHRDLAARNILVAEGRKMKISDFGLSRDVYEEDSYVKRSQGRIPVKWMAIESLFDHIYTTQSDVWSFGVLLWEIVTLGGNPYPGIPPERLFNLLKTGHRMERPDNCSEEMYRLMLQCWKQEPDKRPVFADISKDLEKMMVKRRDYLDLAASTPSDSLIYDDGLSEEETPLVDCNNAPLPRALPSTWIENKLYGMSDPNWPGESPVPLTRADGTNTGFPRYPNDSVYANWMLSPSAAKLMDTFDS
T2 sequence (P07949 29-1114 V804M limits assumed): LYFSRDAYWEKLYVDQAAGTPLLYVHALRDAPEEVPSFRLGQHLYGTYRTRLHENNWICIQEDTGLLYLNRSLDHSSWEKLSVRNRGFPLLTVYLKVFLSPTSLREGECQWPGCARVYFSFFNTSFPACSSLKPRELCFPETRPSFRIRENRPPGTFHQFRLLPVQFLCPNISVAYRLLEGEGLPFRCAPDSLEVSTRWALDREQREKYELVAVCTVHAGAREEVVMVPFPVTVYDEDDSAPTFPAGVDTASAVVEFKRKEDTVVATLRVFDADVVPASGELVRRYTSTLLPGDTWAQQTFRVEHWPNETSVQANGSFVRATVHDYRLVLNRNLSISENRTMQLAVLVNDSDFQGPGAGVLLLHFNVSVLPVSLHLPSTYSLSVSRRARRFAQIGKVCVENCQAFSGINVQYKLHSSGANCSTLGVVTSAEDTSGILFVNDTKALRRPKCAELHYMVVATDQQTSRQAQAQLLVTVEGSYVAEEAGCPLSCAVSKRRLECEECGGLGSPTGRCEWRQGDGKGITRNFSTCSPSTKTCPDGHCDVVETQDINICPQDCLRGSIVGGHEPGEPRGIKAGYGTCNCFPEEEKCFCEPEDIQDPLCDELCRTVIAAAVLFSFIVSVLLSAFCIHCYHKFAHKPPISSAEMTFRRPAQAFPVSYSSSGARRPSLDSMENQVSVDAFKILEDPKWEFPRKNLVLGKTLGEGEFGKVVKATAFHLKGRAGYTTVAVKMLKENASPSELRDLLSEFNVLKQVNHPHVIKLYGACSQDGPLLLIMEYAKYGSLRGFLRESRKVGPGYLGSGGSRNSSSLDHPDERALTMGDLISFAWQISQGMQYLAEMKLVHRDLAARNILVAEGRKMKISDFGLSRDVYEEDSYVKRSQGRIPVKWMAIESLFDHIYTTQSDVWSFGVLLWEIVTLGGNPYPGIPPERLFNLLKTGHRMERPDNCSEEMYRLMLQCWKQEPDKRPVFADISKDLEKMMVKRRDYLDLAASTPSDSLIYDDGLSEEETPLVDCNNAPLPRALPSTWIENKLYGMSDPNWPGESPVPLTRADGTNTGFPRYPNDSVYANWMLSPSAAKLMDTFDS
Sequence of Proto-oncogene tyrosine-protein kinase receptor Ret (Homo sapiens), P07949 [V804L] (P07949 whole entry V804L): as the sequence (P07949 whole entry) above, with V804L counted along it
Sequence of Proto-oncogene tyrosine-protein kinase receptor Ret (Homo sapiens, UniProt P07949, V804L) (P07949 29-1114 V804L limits assumed): as the sequence (P07949 29-1114 V804M limits assumed) above, with M776L counted along it

inhibition [2]: 40%
Compound: Cc1ccc(C(=O)Nc2ccc(CN3CCN(C)CC3)c(C(F)(F)F)c2)cc1C#Cc1cnc(N)c2ncccc12

IC50 [11]: 3.16 nM
IC50 [12]: 3 nM
inhibition [13]: 98%
inhibition [15]: 60%
Compound: CN1CCN(Cc2ccc(NC(=O)c3cncc(C#Cc4cnc(N)c5ncccc45)c3)cc2C(F)(F)F)CC1
IC50 [14]: 3 nM

Continued, compound first:

Compound: CC1(C)c2cc(C3CCN(CC4CCOCC4)CC3)ccc2C(=O)c2c1[nH]c1cc(C#N)ccc21
IC50 [1]: 43.6 nM

Compound: Cc1nc2cnc(N)c(C#Cc3cncc(C(=O)Nc4ccc(CN5CCN(C)CC5)c(C(F)(F)F)c4)c3)c2nc1C
IC50 [3]: 18 nM
IC50 [4]: 1.88 nM
IC50 [5]: 11.6 nM
IC50 [6]: 3.6 nM
IC50 [7]: 10.1 nM
IC50 [8]: 1.76 nM
IC50 [9]: 15.1 nM
IC50 [10]: 7.98 nM

Compound: Cn1cc(-c2ccc3c(c2)ncn3-c2ccc(CC(=O)Nc3cc(C(C)(C)C)on3)cc2)cn1
IC50 [16]: < 1 nM
IC50 [17]: < 1 nM
IC50 [18]: < 1 nM

Compound: CCc1cc2c(cc1-c1ccn(CCCN(C)C)n1)C(C)(C)c1[nH]c3cc(C#N)ccc3c1C2=O
IC50 [19]: 9 nM
IC50 [20]: 2 nM
IC50 [21]: 0.1 nM
